From ChEMBL document CHEMBL3507680, “University of Dundee, Gates Library screen for HepG2 cell viability” come the findings set out here.

The series in a line: Human HepG2 cell viability assay in 384 well format. Format: toxicity, cell-based. More on the design: dose 125 nL, time 70.5 hour; cytotoxicity at 70.5 h: concentration not given beside the values. Particulars: HepG2 cells, read-out: Inhibition.

Regarding `COc1cccc(CNCc2nc3ccccc3c(=O)[nH]2)c1`, the cytotoxicity at 70.5 h came out at 1.76%.

`Cc1cnc(-c2nc(O)c3c(n2)CN(C(=O)C2CCOC2)CC3)cn1` (stereo not drawn): the cytotoxicity at 70.5 h is -1.76%.

For the compound `Cc1cnc(-c2nc(O)c3c(n2)CN(C(=O)CC2CCCC2)CC3)cn1`, the cytotoxicity at 70.5 h is -2.15%.

For `CC1Cc2ccccc2N1C(=O)Cn1nc(-c2cccs2)cc(N)c1=O` (stereo not drawn), the cytotoxicity at 70.5 h was -3.41%.

Take `Cc1nc2cc(C(=O)N3CCn4c(nnc4C4CC4)C3)ccc2s1`: the cytotoxicity at 70.5 h was -2.23%.

For the compound `c1cc(N2CCCCC2)ccc1-c1noc(CN2CCOCC2)n1`, the cytotoxicity at 70.5 h was -0.0335%.

As for `Cc1nc2ccc(C(=O)N3CCC(COc4ccccn4)CC3)cc2[nH]1`, the cytotoxicity at 70.5 h is 44.6%.

With `Cc1ccc(CNCCN2CCOCC2)o1`, the cytotoxicity at 70.5 h was 8.67%.

`CCNC(=O)C1(Cc2ccc(-c3ccccc3)cc2)CCCNC1` (stereo not drawn): the cytotoxicity at 70.5 h was 4.78%.

Regarding `CN1CCC(c2cccc(-c3cccc(C(=O)O)c3)n2)CC1`, the cytotoxicity at 70.5 h was -8.16%.

Consider `Clc1ccc(CN(CCN2CCOCC2)Cc2cccnc2)cc1Cl`, for which the cytotoxicity at 70.5 h was -5.5%.

With `Cc1ccc(N(C)[C@@H]2CC[C@@H]3CN(C(=O)C4CCOCC4)C[C@@H]32)nn1`, the cytotoxicity at 70.5 h is -6.01%.

For the compound `O=C(Cc1ccc(O)cc1)N1CCCC(O)(CN2CCOCC2)CC1` (stereo not drawn), the cytotoxicity at 70.5 h is -7.8%.

In the case of `CS(=O)(=O)N[C@@H]1CN(C(=O)c2cc3ccccc3s2)C[C@H]1O`, the cytotoxicity at 70.5 h was 19%.

Consider `COc1ccc2[nH]cc(C(=O)N3C[C@@H](O)[C@H](NS(C)(=O)=O)C3)c2c1`, for which the cytotoxicity at 70.5 h was -6.21%.

`OCCN1CCCCC1c1cc[nH]n1` (stereo not drawn): the cytotoxicity at 70.5 h was -8.74%.

Turning to `CCOCC(=O)N1C[C@@H](O)[C@H](NC(C)=O)C1`, the cytotoxicity at 70.5 h was -4.78%.

On to `CO[C@H]1CN(S(=O)(=O)c2ccc(C)cc2)C[C@@]12CCCO2`, for which the cytotoxicity at 70.5 h is -6.6%.

For `Cc1cc(CC2COCCN(CCc3ccccc3)C2)ncn1` (stereo not drawn), the cytotoxicity at 70.5 h was determined as 17.8%.

For `CCn1ccc2ccnc(CC3CN(C(=O)c4ccc(F)cc4)C3)c21`, the cytotoxicity at 70.5 h was -6.52%.

Regarding `CC(=O)N1CCN([C@@H]2CN(C(=O)Cc3ccccc3C)C[C@H]2O)CC1`, the cytotoxicity at 70.5 h was -2.44%.

Turning to `NC(=O)c1cnc(NCC(=O)NCc2ccco2)c(Cl)c1`, the cytotoxicity at 70.5 h was -9.01%.

With `CSc1cc2c(cc1NC(=O)NCc1ccncc1)OCCO2`, the cytotoxicity at 70.5 h came out at 2.15%.

As to `CSc1cc2c(cc1NC(=O)N(C)Cc1cnn(C)c1)OCCO2`, the cytotoxicity at 70.5 h worked out at 2.84%.

On to `COCCN(C)C(=O)Nc1cc2c(cc1SC)OCCO2`, for which the cytotoxicity at 70.5 h came out at 10.9%.

On to `CC(NC1(CNS(C)(=O)=O)CCOCC1)c1ccccc1` (stereo not drawn), for which the cytotoxicity at 70.5 h is -8.35%.

Turning to `CCCS(=O)(=O)NC(C)c1cccc(-n2cccn2)c1` (stereo not drawn), the cytotoxicity at 70.5 h is -6.77%.

On to `Cc1nc(NC(=O)NCc2cccnc2NCCN(C)C)sc1C`, for which the cytotoxicity at 70.5 h was -2.85%.

Regarding `CNC(=O)CNC(=O)Nc1ccc(Br)c(F)c1`, the cytotoxicity at 70.5 h is -4.08%.

Turning to `CCC(NC(=O)c1ccco1)c1nc(C(F)(F)F)cs1` (stereo not drawn), the cytotoxicity at 70.5 h was -6.77%.

For the compound `CC(=O)NCC(=O)N(CCc1ccccc1)C1CCOC1` (stereo not drawn), the cytotoxicity at 70.5 h was -9.4%.

For `N#Cc1cccc(OC2CCN(C(=O)c3cncc(O)c3)CC2)c1`, the cytotoxicity at 70.5 h is -2.58%.

As for `Cc1nnc(NCc2ccc(Br)cc2)o1`, the cytotoxicity at 70.5 h was -4.41%.

For the compound `Cc1nnc(NCc2ccc(Cl)cc2)o1`, the cytotoxicity at 70.5 h is -6.23%.

In the case of `CC(NS(=O)(=O)CC1(C#N)CCCC1)c1cccc(-n2cccn2)c1` (stereo not drawn), the cytotoxicity at 70.5 h was -3.64%.

For `OCCCN1CCCC1c1ccc(Br)cc1` (stereo not drawn), the cytotoxicity at 70.5 h was -9.27%.

As to `CNC(=O)c1cccc(CNC2CCCSc3ccccc32)c1` (stereo not drawn), the cytotoxicity at 70.5 h was -5.82%.

`O=C(NCCc1nncn1C1CC1)C1(Cc2ccccc2)CCC1`: the cytotoxicity at 70.5 h is -1.53%.

`CC(C(=O)N(C)Cc1ccc(Br)o1)n1cccn1` (stereo not drawn): the cytotoxicity at 70.5 h is -4.49%.

Consider `CC(OCC1CC1)C(=O)N1CCCN(c2cccnn2)CC1` (stereo not drawn), for which the cytotoxicity at 70.5 h was -5.5%.

As for `CC(C)(CNC(=O)Nc1ccc(S(=O)(=O)C(F)F)cc1)N1CCOCC1`, the cytotoxicity at 70.5 h is -7.87%.

Regarding `CS(=O)(=O)N1CCN(C(=O)CCC2CCCO2)CC1` (stereo not drawn), the cytotoxicity at 70.5 h is -14.1%.

`N#Cc1cn(C2CC2)c(=O)n(Cc2noc(-c3cccs3)n2)c1=O`: the cytotoxicity at 70.5 h was -4.93%.

As for `CC(OCc1ccccc1)C(=O)NC1CCN(CC(N)=O)CC1` (stereo not drawn), the cytotoxicity at 70.5 h was -6.55%.

Regarding `COc1ccc(NC(=O)CN2CCS(=O)(=O)CC2)cn1`, the cytotoxicity at 70.5 h is -10.4%.

As for `CC(=O)NC1CCCN(C(=O)CCc2cccnc2)C1` (stereo not drawn), the cytotoxicity at 70.5 h was 19.2%.

For the compound `Cc1ccc(F)c(S(=O)(=O)NCc2[nH]ncc2Br)c1`, the cytotoxicity at 70.5 h was -10%.

Turning to `CC(C)(C)CC(=O)N1CSCC1C(=O)NC1=NCCS1` (stereo not drawn), the cytotoxicity at 70.5 h came out at 19.4%.

As to `CSCCC(C)NC(=O)c1cccc(-c2n[nH]c(C)n2)c1` (stereo not drawn), the cytotoxicity at 70.5 h is -6.77%.

Regarding `CNC(=O)C(CC(C)C)NC(=O)c1cccc(-c2n[nH]c(C)n2)c1` (stereo not drawn), the cytotoxicity at 70.5 h is 0.903%.

In the case of `Brc1ccc(CN2CCC(NCc3ncc[nH]3)CC2)cc1`, the cytotoxicity at 70.5 h is -0.173%.

Turning to `COC(=O)[C@H](C)NC(=O)Cc1c(C)nc2cc(=O)[nH]n2c1C`, the cytotoxicity at 70.5 h is -7.8%.

As to `CS(=O)(=O)NCc1ccc2c(c1)CCC2`, the cytotoxicity at 70.5 h is -7.69%.

As for `CC(C)c1noc(CCC(=O)N(CC2CCOC2)C2CC2)n1` (stereo not drawn), the cytotoxicity at 70.5 h was -8.06%.

Turning to `Cc1ccc(N2CCCN(C(=O)C(C)OCC3CC3)CC2)nn1` (stereo not drawn), the cytotoxicity at 70.5 h was -11.3%.

As for `CC(C)(C)c1nnc(CSc2ccccn2)o1`, the cytotoxicity at 70.5 h is -6.49%.

As for `CCc1nnc(CSc2ccccn2)o1`, the cytotoxicity at 70.5 h is -9.38%.

As to `Clc1cc(Cl)cc(CN2CCC(NCc3cc[nH]n3)CC2)c1`, the cytotoxicity at 70.5 h was -4.79%.

Regarding `CC(C)(C)CN(CCC#N)C(=O)c1cccc(CN2CCCC2)c1`, the cytotoxicity at 70.5 h is 4.22%.

On to `CCn1cc(NC(=O)NCCN2CCCCCC2=O)cn1`, for which the cytotoxicity at 70.5 h is -6.34%.

Take `CCCn1ccnc1-c1cccc(NC2CCOC2)c1` (stereo not drawn): the cytotoxicity at 70.5 h is -1.36%.

With `CCCN(Cc1nnnn1C1CC1)CC1COc2ccccc2O1` (stereo not drawn), the cytotoxicity at 70.5 h was 0.609%.

Turning to `O=C(NCc1nnc2n1CCC2)c1cn(-c2ccccc2Br)nn1`, the cytotoxicity at 70.5 h is -2.93%.

For `N#Cc1cccnc1NCCc1cc(F)cc2c1OCOC2`, the cytotoxicity at 70.5 h was 24%.

On to `O=C(Cc1c(F)cccc1Cl)NC1CCCCNC1=O` (stereo not drawn), for which the cytotoxicity at 70.5 h is -5.89%.

Take `Cc1ccc(-n2cc(C(=O)NCc3nnc4n3CCCCC4)nn2)cc1`: the cytotoxicity at 70.5 h was -3.85%.

In the case of `CCn1cc(NC(=O)NCCN2CCCc3ccccc32)cn1`, the cytotoxicity at 70.5 h was determined as 0.821%.

As to `FC(F)(F)Oc1cccc(CNCc2ccc(-n3cncn3)nc2)c1`, the cytotoxicity at 70.5 h was determined as 26.6%.

For `CC(C)C(CCO)NC(=O)Nc1ccc(-c2csnn2)cc1` (stereo not drawn), the cytotoxicity at 70.5 h was -5.31%.

For the compound `COc1cccc(F)c1C(C)NC(=O)NCc1cnc(C)s1` (stereo not drawn), the cytotoxicity at 70.5 h was -1.56%.

As to `CC(C)(C)NC(=O)CNc1ncc(Br)cn1`, the cytotoxicity at 70.5 h came out at 0.722%.

As for `CN(Cc1ccnc2ccccc12)C1CCS(=O)(=O)C1` (stereo not drawn), the cytotoxicity at 70.5 h was -6.17%.

`CCn1ccc2ccnc(CC3CN(C(=O)Cn4ccnc4C)C3)c21`: the cytotoxicity at 70.5 h was -5.67%.
